As a reminder, the IC50 is the concentration that inhibits the measured activity by half.

This assay concerns the target hQC (Homo sapiens, UniProt Q16769). As to the kind of experiment: Inhibitor assay for glutaminyl cyclase activity (fluorometric, H-Gln-βNA / H-Gln-AMC). In kind it is biochemical. Particulars: read-out: IC50. Summed up:
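Coupled fluorometric assay at 30 °C with pyroglutamyl aminopeptidase, in Tris/HCl pH 8.0 with EDTA, substrate H-Gln-βNA (0.2 mM; ex/em 320/410 nm) or H-Gln-AMC (ex/em 380/460 nm), initiated by QC. Screening: 4 mM inhibitor, substrate at 1 KM; Ki from progress curves fitted to competitive inhibition.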

Chain of hQC (Q16769 29-361): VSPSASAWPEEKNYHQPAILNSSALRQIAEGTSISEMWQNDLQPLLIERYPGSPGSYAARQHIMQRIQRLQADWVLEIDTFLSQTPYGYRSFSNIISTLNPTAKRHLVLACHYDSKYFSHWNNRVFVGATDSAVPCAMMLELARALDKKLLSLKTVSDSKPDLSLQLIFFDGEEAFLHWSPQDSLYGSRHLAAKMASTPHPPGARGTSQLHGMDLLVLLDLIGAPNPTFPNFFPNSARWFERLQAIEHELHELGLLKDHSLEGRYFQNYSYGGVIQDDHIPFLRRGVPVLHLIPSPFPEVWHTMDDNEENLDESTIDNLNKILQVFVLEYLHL

Consider `CCCC(=O)C1=C(O)C(=O)N(c2ccc3[nH]cnc3c2)C1C1CCOC1` (stereo not shown) [Compound 425, 1-(1H-Benzoimidazol-5-yl)-4-butyryl-3-hydroxy-5-(tetrahydro-furan-3-yl)-1,5-dihydro-pyrrol-2-one], for which the IC50 stood at 1840 nM.
Turning to `CC1=C(O)C(=O)N(c2ccc3[nH]cnc3c2)C1c1ccco1` (stereo not shown) [Compound 426, 1-(1H-Benzoimidazol-5-yl)-5-furan-2-yl-3-hydroxy-4-methyl-1,5-dihydro-pyrrol-2-one], the IC50 was found to be 4 nM.
Next, `CC(C)CC(=O)C1=C(O)C(=O)N(c2ccc3[nH]cnc3c2)C1c1cc[nH]n1` (stereo not shown) [Compound 427, 1-(1H-Benzoimidazol-5-yl)-3-hydroxy-4-(3-methyl-butyryl)-5-(1H-pyrazol-3-yl)-1,5-dihydro-pyrrol-2-one]: 7960 nM.
As to `CCC1=C(O)C(=O)N(c2ccc3[nH]cnc3c2)C1c1coc2ccc(C)cc2c1=O` (stereo not shown) [Compound 428, 1-(1H-Benzoimidazol-5-yl)-4-ethyl-3-hydroxy-5-(6-methyl-4-oxo-4H-chromen-3-yl)-1,5-dihydro-pyrrol-2-one], the IC50 worked out at 40 nM.
Next, `Cc1cccc(C2C(c3ccc(O)cc3)=C(O)C(=O)N2c2ccc3[nH]cnc3c2)c1` (stereo not shown) [Compound 429, 1-(1H-Benzoimidazol-5-yl)-3-hydroxy-4-(4-hydroxy-phenyl)-5-m-tolyl-1,5-dihydro-pyrrol-2-one]: 1390 nM; `Cc1cccc(C2C(C(C)C)=C(O)C(=O)N2c2ccc3[nH]cnc3c2)n1` (stereo not shown) [Compound 430, 1-(1H-Benzoimidazol-5-yl)-3-hydroxy-4-isopropyl-5-(6-methyl-pyridin-2-yl)-1,5-dihydro-pyrrol-2-one]: 9490 nM; `CCC1=C(O)C(=O)N(c2ccc3[nH]cnc3c2)C1c1ccc2nonc2c1` (stereo not shown) [Compound 431, 1-(1H-Benzoimidazol-5-yl)-5-(benzo[c][1,2,5]oxadiazol-5-yl)-4-ethyl-3-hydroxy-1,5-dihydro-pyrrol-2-one]: 2110 nM.
Next, `CCCC(=O)C1=C(O)C(=O)N(c2ccc3[nH]cnc3c2)C1c1ccc(CO)o1` (stereo not shown) [Compound 432, 1-(1H-Benzoimidazol-5-yl)-4-butyryl-3-hydroxy-5-(5-hydroxymethyl-furan-2-yl)-1,5-dihydro-pyrrol-2-one]: 2650 nM.
Next, `CC(=O)C1=C(O)C(=O)N(c2ccc3[nH]cnc3c2)C1c1cc(C)c(C)o1` (stereo not shown) [Compound 433, 4-Acetyl-1-(1H-benzoimidazol-5-yl)-5-(4,5-dimethyl-furan-2-yl)-3-hydroxy-1,5-dihydro-pyrrol-2-one]: 1210 nM.
Regarding `Cc1cccc(C2C(c3cccc(O)c3)=C(O)C(=O)N2c2ccc3[nH]cnc3c2)c1` (stereo not shown) [Compound 434, 1-(1H-Benzoimidazol-5-yl)-3-hydroxy-4-(3-hydroxy-phenyl)-5-m-tolyl-1,5-dihydro-pyrrol-2-one], the IC50 was 3640 nM.
Next, `O=C(C1=C(O)C(=O)N(c2ccc3[nH]cnc3c2)C1c1ncc[nH]1)C1CCCCC1` (stereo not shown) [Compound 435, 1-(1H-Benzoimidazol-5-yl)-4-cyclohexanecarbonyl-3-hydroxy-5-(1H-imidazol-2-yl)-1,5-dihydro-pyrrol-2-one]: 6970 nM.
With `CC1=C(O)C(=O)N(c2ccc3[nH]cnc3c2)C1c1c[nH]c2cc(C)ccc12` (stereo not shown) [Compound 436, 1-(1H-Benzoimidazol-5-yl)-3-hydroxy-4-methyl-5-(6-methyl-1H-indol-3-yl)-1,5-dihydro-pyrrol-2-one], the half-maximal inhibitory concentration (IC50) was determined as 490 nM.
For `O=C1C(O)=C(c2c[nH]c3ccccc23)C(c2ccc(O)c(Br)c2)N1c1ccc2[nH]cnc2c1` (stereo not shown) [Compound 438, 1-(1H-Benzoimidazol-5-yl)-5-(3-bromo-4-hydroxy-phenyl)-3-hydroxy-4-(1H-indol-3-yl)-1,5-dihydro-pyrrol-2-one], the IC50 stood at 580 nM.
For the molecule `CCC1C(C(C)=O)=C(O)C(=O)N1c1ccc2[nH]cnc2c1` (stereo not shown) [Compound 439, 4-Acetyl-1-(1H-benzoimidazol-5-yl)-5-ethyl-3-hydroxy-1,5-dihydro-pyrrol-2-one], the concentration for half-maximal inhibition (IC50) amounted to 2740 nM.
For `O=C(C1=C(O)C(=O)N(c2ccc3[nH]cnc3c2)C1)C1CCCCC1` [Compound 441, 1-(1H-Benzoimidazol-5-yl)-4-cyclohexanecarbonyl-3-hydroxy-1,5-dihydro-pyrrol-2-one], the IC50 came to 850 nM.
Next, `CC(C)(C)C(=O)C1=C(O)C(=O)N(c2ccc3[nH]cnc3c2)C1c1c(F)c(F)cc(F)c1F` (stereo not shown) [Compound 442, 1-(1H-Benzoimidazol-5-yl)-4-(2,2-dimethyl-propionyl)-3-hydroxy-5-(2,3,5,6-tetrafluoro-phenyl)-1,5-dihydro-pyrrol-2-one]: 8590 nM; `O=C(C1=C(O)C(=O)N(c2ccc3[nH]cnc3c2)C1c1cccc2cccnc12)C1CC1` (stereo not shown) [Compound 443, 1-(1H-Benzoimidazol-5-yl)-4-cyclopropanecarbonyl-3-hydroxy-5-quinolin-8-yl-1,5-dihydro-pyrrol-2-one]: 4630 nM; `CC(=O)C1=C(O)C(=O)N(c2ccc3[nH]cnc3c2)C1c1cc[nH]n1` (stereo not shown) [Compound 444, 4-Acetyl-1-(1H-benzoimidazol-5-yl)-3-hydroxy-5-(1H-pyrazol-3-yl)-1,5-dihydro-pyrrol-2-one]: 6880 nM.
Next, `CC(C)CC(=O)C1=C(O)C(=O)N(c2ccc3[nH]cnc3c2)C1CCC(=O)O` (stereo not shown) [Compound 447, 3-[1-(1H-Benzoimidazol-5-yl)-4-hydroxy-3-(3-methyl-butyryl)-5-oxo-2,5-dihydro-1H-pyrrol-2-yl]-propionic acid]: 2560 nM; `CC1=C(O)C(=O)N(c2ccc3[nH]cnc3c2)C1c1cnc2ccccc2c1` (stereo not shown) [Compound 448, 1-(1H-Benzoimidazol-5-yl)-3-hydroxy-4-methyl-5-quinolin-3-yl-1,5-dihydro-pyrrol-2-one]: 1750 nM.
Next, `CCCC(=O)C1=C(O)C(=O)N(c2ccc3[nH]cnc3c2)C1C1CC1` (stereo not shown) [Compound 449, 1-(1H-Benzoimidazol-5-yl)-4-butyryl-5-cyclopropyl-3-hydroxy-1,5-dihydro-pyrrol-2-one]: 2200 nM.
Take `CC(=O)C1=C(O)C(=O)N(c2ccc3[nH]cnc3c2)C1CCC(=O)O` (stereo not shown) [Compound 450, 3-[3-Acetyl-1-(1H-benzoimidazol-5-yl)-4-hydroxy-5-oxo-2,5-dihydro-1H-pyrrol-2-yl]-propionic acid]: the IC50 was found to be 9490 nM.
Next, `O=C(O)c1ccc(C2C(c3c[nH]c4ccccc34)=C(O)C(=O)N2c2ccc3[nH]cnc3c2)o1` (stereo not shown) [Compound 451, 5-[1-(1H-Benzoimidazol-5-yl)-4-hydroxy-3-(1H-indol-3-yl)-5-oxo-2,5-dihydro-1H-pyrrol-2-yl]-furan-2-carboxylic acid]: 2560 nM; `O=C(C1=C(O)C(=O)N(c2ccc3[nH]cnc3c2)C1c1ccc[nH]1)C1CCCCC1` (stereo not shown) [Compound 452, 1-(1H-Benzoimidazol-5-yl)-3-cyclohexanecarbonyl-4-hydroxy-1,2-dihydro-1′H-[2,2′]bipyrrolyl-5-one]: 5080 nM; `Cc1ccc2c(C3C(C(=O)C4CC4)=C(O)C(=O)N3c3ccc4[nH]cnc4c3)c[nH]c2c1` (stereo not shown) [Compound 453, 1-(1H-Benzoimidazol-5-yl)-4-cyclopropanecarbonyl-3-hydroxy-5-(6-methyl-1H-indol-3-yl)-1,5-dihydro-pyrrol-2-one]: 7420 nM.

The values above are taken from patent US8278345B2, “Inhibitors of glutaminyl cyclase” (Probiodrug AG, priority 2006, dated 2012).
